Source: patent publication US20230086985A1, “POLYMERIC COMPOUNDS INCLUDING AN ACCEPTOR DYE AND DONOR LUMINOPHORE” (North Carolina State University, priority 2019, published 2023)
Where two headings read alike, the source gives them in different places.

Legend:
[1] = Absorption and emission spectra of dye-loaded copolymers F1-F3 and dyes D1-D3; type: physicochemical
Source text: Measurements of Absorption and Emission Spectra. The target dye-loaded copolymers F1-F3 were then subject to investigations of their spectroscopic properties in both organic solvents and aqueous solution. […] Attaching to the 120-kDa amphiphilic copolymer drastically enhances the water solubility of BODIPY D1 and chlorin D2 without strong perturbation on the spectroscopic properties. Emission band for F1 and F2 in water remains the same as the ones measured in organic solutions, showing minimal dye-dye interaction is involved in aqueous solution of F1 and F2 at μM concentration. […] This negative result may be because of the inappropriate size of the copolymer backbone. Polymer larger in size may be required to encapsulate large hydrophobic chromophores like the phthalocyanine D3.
General Methods. All chemicals obtained commercially were used as received unless otherwise noted. Reagent-grade solvents (CH2Cl2, THF, methanol) and HPLC-grade water were used as received. NMR data was measured in a solution of CDCl3 unless otherwise noted. Noncommercial compounds 1, 2, and 4 were prepared following literature procedures. Analytical SEC experiments were performed with PLgel 10000 Å SEC column, eluted with ACS grade THF (stabilized with 400 ppm of BHT) at 35° C. with a flow rate at 1 mL/min. Samples were detected with Agilent 1260 infinity refractive index detector. Absorption spectra were measured on Agilent 8453 and Shimadzu UV1800 instruments using dilute (μmolar) solutions of the compound in UV transparent (e.g., quartz) cuvettes versus a solvent blank at room temperature.

[2] = Fluorescence quantum yield of F1-F3 and D1-D3; type: physicochemical
Source text: Fluorescence Quantum Yields. […] […] These comparisons indicate the absence of dye-dye quenching resulting from the aggregation for F1 and F2 in μM aqueous solutions. […] Also, a smaller phthalocyanine skeleton (e.g. with methyl instead of heptyl as peripheral groups) may be encapsulated with the current length of copolymer successfully.

[3] = aqueous solution, cited from earlier work
[4] = aqueous solution, Hg(II); cited from earlier work
[5] = solvent CH2Cl2, room temperature
[6] = solvent toluene, room temperature

| FWHM [1, 5] [cm⁻¹] | emission maximum wavelength (λem max) [1, 5] [nm] | λabs^max [1, 5] [nm] | Φf [2, 5] | SMILES | also measured |
| --- | --- | --- | --- | --- | --- |
| 1628 | 557 | 543 | 0.065 | Cc1cc(C)c(C2=C3C=CC=[N+]3[B-](F)(F)n3cc(C#CCCCCC(=O)NN)cc32)c(C)c1 [Compound D1, 2-[6-(N-Aminocarbamoyl)hex-1-yn-1-yl]-8-mesityl-4,4-difluoro-4-bora-3a,4a-diaza-s-indacene] |  |
| 342 | 641 | 640 | 0.19 | Cc1cc(C)c(-c2c3nc(c(-c4ccc(C(=O)NN)cc4)c4ccc(cc5nc(cc6ccc2[nH]6)CC5(C)C)[nH]4)C=C3)c(C)c1 [Compound D2, 5-[4-(N-Aminocarbamoyl)phenyl]-10-Mesityl-18,18-dimethylchlorin] |  |
|  |  |  |  | CCCCCCCc1cc2c(cc1CCCCCCC)-c1nc-2nc2[nH]c(nc3nc(nc4[nH]c(n1)c1cc(CCCCCCC)c(CCCCCCC)cc41)-c1cc(C#Cc4ccc(CC(=O)NN)cc4)ccc1-3)c1cc(CCCCCCC)c(CCCCCCC)cc21 [Compound D3, 2-[4-(N-Aminocarbamoyl)methylphenylethynyl]-9,10,16,17,23,24-hexaheptylphthalocyanine] | FWHM [1, 6]: 1113 cm⁻¹; emission maximum wavelength (λem max) [1, 6]: 707 nm; λabs^max [1, 6]: 702 nm; Φf [2, 6]: 0.68 |
|  |  |  |  | CCN(CC)c1ccc2c(c1)Oc1cc(N(CC)CC)ccc1C21c2ccccc2C(=O)N1N [Rhodamine-B hydrazide] | change in absorption or fluorescence spectra ([3]; Cu(II)): significant change; Cu(II) concentration at which selective detection was highly sensitive and quantitative [3]: 10^−7 M; change in absorption or fluorescence spectra [4]: significant change |
